Source: ChEMBL document CHEMBL4665667, “Lowering Lipophilicity by Adding Carbon: AzaSpiroHeptanes, a logD Lowering Twist” (ACS Med Chem Lett, 2019)

Columns and labels:
[1] = Apparent permeability in human Caco2 cells at 10 uM; type: ADME, cell-based; conditions: Caco-2
[2] = Intrinsic clearance in human liver microsomes; type: ADME, Microsome; conditions: read-out: CLH
[3] = Intrinsic clearance in human hepatocytes assessed per 10^6 cells; type: ADME, cell-based, Hepatocyte; conditions: read-out: CLH
[4] = Lipophilicity, logD of compound at pH 7.4 by Shake-flask distribution coefficient method; type: physicochemical; conditions: octanol/water
[5] = Dissociation constant, pKa of compound; type: physicochemical
[6] = Intrinsic clearance in rat hepatocytes assessed per 10^6 cells; type: ADME, cell-based, Hepatocyte; conditions: read-out: CLH
[7] = molecular target: T1, Glucose-dependent insulinotropic receptor (Homo sapiens, UniProt Q8TDV5); assay: Agonist activity at human GPR119 expressed in HEK293 cells assessed as increase in cAMP level incubated for 45 mins by cAMP HTRF assay; type: functional, cell-based
T1 sequence (Q8TDV5 whole entry): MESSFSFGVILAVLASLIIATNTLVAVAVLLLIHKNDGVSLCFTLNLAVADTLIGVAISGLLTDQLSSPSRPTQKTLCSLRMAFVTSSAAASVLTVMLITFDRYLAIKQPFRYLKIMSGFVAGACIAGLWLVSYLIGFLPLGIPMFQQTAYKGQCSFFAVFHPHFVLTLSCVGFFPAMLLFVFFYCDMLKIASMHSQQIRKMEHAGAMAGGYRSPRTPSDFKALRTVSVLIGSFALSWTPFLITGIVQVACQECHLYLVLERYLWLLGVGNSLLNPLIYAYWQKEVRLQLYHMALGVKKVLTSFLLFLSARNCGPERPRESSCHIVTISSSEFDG

[8] = Lipophilicity, logD of compound in octanol and buffer in pH 7.4 incubated for 30 mins under shaking condition by LC/UV analysis; type: physicochemical
[9] = Apparent permeability across apical to basolateral side in MDCK cells incubated at 10 uM; type: ADME, cell-based, Canis lupus familiaris; conditions: dog

| Papp at 10 µM [1] [×10⁻⁶ cm/s] | microsomal CLint [2] [µL/min/mg] | hepatocyte CLint [3] [µL/min/1e6 cells] | logD [4] | pKa [5] | hepatocyte CLint [6] [µL/min/1e6 cells] | EC50 [7] [µM] | logD at 0.5 h [8] | Papp A→B at 10 µM [9] [×10⁻⁶ cm/s] | SMILES |
| --- | --- | --- | --- | --- | --- | --- | --- | --- | --- |
| 4.1 | < 3 | < 1 | 0.8 | 8.2 | 8 |  |  |  | c1nc(N[C@H]2CC[C@H](N3CC4(COC4)C3)CC2)c2c(C3CCOCC3)c[nH]c2n1 |
|  |  |  |  |  |  | 16 | 2.5 | 17 | CC(C)(C)OC(=O)N1CC2(C1)CN(c1ncc(OCc3ccncc3C#N)cn1)C2 |
